From patent publication US11111270B2, “Inhibitor of apoptosis protein (IAP) antagonists” (Sanford Burnham Prebys Medical Discovery Institute, priority 2012, dated 2021)

Columns and labels:
[1] = biological target: XIAP BIR1/2 (Homo sapiens, UniProt P98170); test: XIAP BIR1/2 Ki; assay type: binding
[2] = biological target: XIAP BIR3 (Homo sapiens (Human), UniProt P98170); test: XIAP BIR3 Ki; assay type: binding
[3] = biological target: ML-IAP (Homo sapiens (Human), UniProt Q96CA5); test: ML-IAP Ki; assay type: binding
[4] = test system: PPC-1 cells; test: PPC-1 cell survival with TRAIL (Cell Titer Glo); assay type: cell-based
Experimental: (§1) 5000 PPC-1 cells were plated and grown overnight. Compounds were plated and 4 hrs later, TRAIL was added to half of the plate while RPMI was added to the other half of the plate as a control. Plates were return to the incubator for 24 hrs. Plates were removed from the incubator and placed on the bench for 30 min and then 25 uL of Cell Titer Glo were added per well. Plates were placed on a rocker and then read on a luminometer. 5000 MDA-MB-231 cells were plated per well. Compound was added and 4 hrs later, TRAIL was added at 5 ng/mL; RPMI was added for a minus TRAIL control. Plates were incubated an additional 24 hrs, removed to the bench for 30 min, and then 25 uL of cell titer glo was added per well. Plates were placed on a rocker and read on a luminometer. Data were fit using PRISM.

[5] = test system: PPC-1 cells; test: PPC-1 cell survival with TNFα; assay type: cell-based
Experimental: as §1, with “Compounds were plated and 4 hrs later, TRAIL was added to half of the plate while RPMI was added to the other half of the plate as a control.” left out

[6] = test system: MDA-MB-231 cells; test: MDA-MB-231 cell survival (Cell Titer Glo); assay type: cell-based
Experimental: as §1

Sequence of XIAP BIR1/2 (P98170 whole entry, looked up): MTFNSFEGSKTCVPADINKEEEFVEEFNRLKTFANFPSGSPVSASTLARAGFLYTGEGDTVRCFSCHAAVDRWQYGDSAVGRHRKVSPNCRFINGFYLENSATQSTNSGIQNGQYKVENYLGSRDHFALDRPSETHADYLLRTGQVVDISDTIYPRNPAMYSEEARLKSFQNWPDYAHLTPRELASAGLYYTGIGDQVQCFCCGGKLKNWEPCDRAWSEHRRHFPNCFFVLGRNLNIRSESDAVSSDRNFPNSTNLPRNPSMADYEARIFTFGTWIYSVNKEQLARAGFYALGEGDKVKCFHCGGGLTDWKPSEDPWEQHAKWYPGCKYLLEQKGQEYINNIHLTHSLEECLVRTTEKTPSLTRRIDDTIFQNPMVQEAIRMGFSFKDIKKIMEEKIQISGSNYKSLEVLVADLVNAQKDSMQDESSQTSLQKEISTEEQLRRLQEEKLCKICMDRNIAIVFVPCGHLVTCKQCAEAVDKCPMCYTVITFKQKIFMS
Sequence of XIAP BIR3 (P98170 241-356): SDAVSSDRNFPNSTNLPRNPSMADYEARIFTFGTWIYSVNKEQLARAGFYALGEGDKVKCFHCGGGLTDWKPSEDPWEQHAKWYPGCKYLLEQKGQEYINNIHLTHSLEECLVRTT
Sequence of ML-IAP (Q96CA5 whole entry, species assumed): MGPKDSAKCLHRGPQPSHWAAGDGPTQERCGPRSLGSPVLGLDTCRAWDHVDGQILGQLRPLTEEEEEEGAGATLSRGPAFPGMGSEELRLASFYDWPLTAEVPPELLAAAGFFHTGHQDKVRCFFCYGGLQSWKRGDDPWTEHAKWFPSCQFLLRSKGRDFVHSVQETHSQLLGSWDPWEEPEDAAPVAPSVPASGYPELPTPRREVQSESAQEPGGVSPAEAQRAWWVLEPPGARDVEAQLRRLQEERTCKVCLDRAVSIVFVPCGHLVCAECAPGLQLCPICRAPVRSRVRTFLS

Ki ([2]; Table B-1) | Compound | Ki ([1]; Table B-1) | Ki ([3]; Table B-1) | other results
< 25 µM | CN[C@@H](C)C(=O)N[C@H]1Cc2c([nH]c3ccccc23)[C@H]2CCC(C(=O)N[C@@H]3CCCc4ccccc43)N2C1=O (stereo partly shown) [Product 31] | < 25 µM |  | 
25 to 50 µM | CN[C@@H](C)C(=O)NC1CCO[C@H]2CC[C@H](C(=O)n3ccc4ccccc43)N2C1=O (stereo partly shown) [Product 22] | > 50 µM |  | 
< 25 µM | CN[C@@H](C)C(=O)N[C@@H]1C(=O)N2C(C(=O)NC3CCCc4ccccc43)CC[C@@H]2O[C@@H]1C (stereo partly shown) [Product 10] | > 50 µM | < 25 µM | 
< 25 µM | CN[C@@H](C)C(=O)N[C@H]1CCCNC2CCC(C(=O)Nc3cccc4ccccc34)N2C1=O (stereo partly shown) [Product 17] | < 25 µM |  | 
< 25 µM | CN[C@@H](C)C(=O)N[C@H]1CCO[C@H]2CC[C@@H](C(=O)Nc3cccc4ccccc34)N2C1=O [Product 25] | < 25 µM |  | 
25 to 50 µM | CN[C@@H](C)C(=O)NC1CCO[C@H]2CC[C@@H](C(=O)n3ccc4ccccc43)N2C1=O (stereo partly shown) [Product 23] | > 50 µM |  | 
 | CN[C@@H](C)C(=O)N[C@H]1CCO[C@H]2CC(C)(C)C(C(=O)N[C@@H]3CCCc4ccccc43)N2C1=O (stereo partly shown) [Product 17b] |  |  | Ki ([1]; Table 2-2): < 25 µM; Ki ([2]; Table 2-2): < 25 µM; Ki ([3]; Table 2-2): < 25 µM
< 25 µM | CN[C@@H](C)C(=O)NC1CCO[C@H]2CCC(C(=O)Nc3cccc4ccccc34)N2C1=O (stereo partly shown) [Product 13] | < 25 µM |  | 
< 25 µM | CN[C@@H](C)C(=O)N[C@H]1CCO[C@H]2CC3(CC=CC3)C(C(=O)N[C@@H]3CCCc4ccccc43)N2C1=O (stereo partly shown) [Product 42] | < 25 µM | < 25 µM | 
 | CN[C@@H](C)C(=O)N[C@H]1CCO[C@H]2CC[C@H](C(=O)N[C@@H]3CCOc4ccccc43)N2C1=O [Product 39] | > 50 µM |  | 
< 25 µM | CN[C@@H](C)C(=O)N[C@H]1CCO[C@H]2CC3(CCCC3)C(C(=O)N[C@@H]3CCCc4ccccc43)N2C1=O (stereo partly shown) [Product 43] | < 25 µM |  | 
 | CN[C@@H](C)C(=O)N[C@H]1CO[C@H]2CCC(C(=O)Nc3ccc(OC)cc3)N2C1=O (stereo partly shown) [Product 3] | > 50 µM |  | 
25 to 50 µM | CN[C@@H](C)C(=O)N[C@H]1Cc2c([nH]c3ccccc23)[C@H]2CCC(C(=O)N[C@@H]3CCCc4ccccc43)N2C1=O (stereo partly shown) [Product 30] | > 50 µM |  | 
 | CN[C@@H](C)C(=O)N[C@@H]1C(=O)N2C(C(=O)NC(c3ccccc3)c3ccccc3)CC[C@@H]2O[C@@H]1C (stereo partly shown) [Product 15] | > 50 µM |  | 
 | CN[C@@H](C)C(=O)N[C@H]1CCS(=O)(=O)[C@H]2CC[C@H](C(=O)N[C@@H]3CCCc4ccccc43)N2C1=O [Product 38] | > 50 µM |  | 
< 25 µM | CN[C@@H](C)C(=O)N[C@H]1CO[C@H]2CCC(C(=O)NC3CCCc4ccccc43)N2C1=O (stereo partly shown) [Product 9] | > 50 µM |  | 
< 25 µM | CN[C@@H](C)C(=O)N[C@H]1Cc2ccc(O)cc2[C@H]2CC(C)(C)C(C(=O)N[C@@H]3CCCc4ccccc43)N2C1=O (stereo partly shown) [Product 45] | < 25 µM |  | 
< 25 µM | CN[C@@H](C)C(=O)N[C@H]1CCS[C@H]2CCCC(C(=O)N[C@@H]3CCCc4ccccc43)N2C1=O (stereo partly shown) [Product 41] | < 25 µM |  | 
 | CN[C@@H](C)C(=O)N[C@H]1CCN[C@H]2CCC(C(=O)N[C@@H]3CCCc4ccccc43)N2C1=O (stereo partly shown) [Product 28] | > 50 µM |  | 
< 25 µM | CN[C@@H](C)C(=O)N[C@H]1CCO[C@H]2CCC(C(=O)NC(c3ccccc3)c3ccccc3)N2C1=O (stereo partly shown) [Product 14] | > 50 µM | < 25 µM | 
< 25 µM | CN[C@@H](C)C(=O)N[C@H]1CC(=O)N[C@H]2CC(C)(C)C(C(=O)N[C@@H]3CCCc4ccccc43)N2C1=O (stereo partly shown) [Product 46] | > 50 µM | < 25 µM | 
 | CC(=O)N(C)[C@@H](C)C(=O)N[C@H]1CCCN(C(C)=O)[C@H]2CCC(C(=O)Nc3cccc4ccccc34)N2C1=O (stereo partly shown) [Product 18] | > 50 µM |  | 
 | CN[C@@H](C)C(=O)N[C@@H]1C(=O)N2C(C(=O)Nc3cccc4ccccc34)CC[C@@H]2O[C@@H]1C (stereo partly shown) [Product 11] | > 50 µM |  | 
< 25 µM | CN[C@@H](C)C(=O)N[C@H]1CCO[C@H]2CC(C)(C)C(C(=O)Nc3ccccc3SSc3ccccc3NC(=O)C3N4C(=O)[C@@H](NC(=O)[C@H](C)NC)CCO[C@H]4CC3(C)C)N2C1=O (stereo partly shown) [Product 40] | < 25 µM |  | 
< 25 µM | CN[C@@H](C)C(=O)N[C@H]1CCCN(C(C)=O)C2CCC(C(=O)N[C@@H]3CCCc4ccccc43)N2C1=O (stereo partly shown) [Product 20] | > 50 µM |  | 
 | CN[C@@H](C)C(=O)N[C@H]1CCO[C@H]2c3ccccc3C(C(=O)N[C@@H]3CCCc4ccccc43)N2C1=O (stereo partly shown) [Product 17a] |  |  | Ki ([1]; Table 2-2): > 50 µM; Ki ([2]; Table 2-2): < 25 µM; Ki ([3]; Table 2-2): < 25 µM
 | CN[C@@H](C)C(=O)N[C@H]1CO[C@H]2CCC(C(=O)NCc3ccccc3)N2C1=O (stereo partly shown) [Product 5] | > 50 µM |  | 
 | CN[C@@H](C)C(=O)N[C@H]1CO[C@H]2CCC(C(=O)Nc3ccc(Cl)cc3)N2C1=O (stereo partly shown) [Product 8] | > 50 µM |  | 
 | CN[C@@H](C)C(=O)N[C@H]1CCS[C@H]2CC(C)(C)C(C(=O)N[C@@H]3CCCc4ccccc43)N2C1=O (stereo partly shown) [Product 17c] |  |  | Ki ([1]; Table 2-2): < 25 µM; Ki ([2]; Table 2-2): < 25 µM; Ki ([3]; Table 2-2): < 25 µM

Compound | Ki ([2]; Table B-1) | Ki ([1]; Table B-1) | Ki ([3]; Table B-1) | other results
CN[C@@H](C)C(=O)N[C@H]1CCO[C@H]2CC[C@@H](C(=O)N[C@@H]3CCCc4ccccc43)N2C1=O [Product 33] | < 25 µM | > 50 µM | < 25 µM | PPC-1 (TRAIL) LD50 [4]: A (A = ≤ 25 micromolar); PPC-1 (TNFα) LD50 [5]: A (A = ≤ 25 micromolar)
CN[C@@H](C)C(=O)N[C@H]1CCO[C@H]2CC(C)(C)[C@@H](C(=O)N[C@@H]3CCCc4ccccc43)N2C1=O [Product 26] | < 25 µM | < 25 µM | < 25 µM | MDA-MB-231 LD50 [6]: A (A = ≤ 25 micromolar); PPC-1 (TRAIL) LD50 [4]: A (A = ≤ 25 micromolar); PPC-1 (TNFα) LD50 [5]: A (A = ≤ 25 micromolar)
CN[C@@H](C)C(=O)N[C@H]1CCCNC2CCC(C(=O)N[C@@H]3CCCc4ccccc43)N2C1=O (stereo partly shown) [Product 16] | < 25 µM |  |  | 
CNC(C)C(=O)N[C@H]1CO[C@H]2CCC(C(=O)Nc3ccc(OC)cc3)N2C1=O (stereo partly shown) [Product 4] | 25 to 50 µM | > 50 µM |  | 
CN[C@@H](C)C(=O)N[C@H]1CCS(=O)(=O)[C@H]2CC[C@@H](C(=O)N[C@@H]3CCCc4ccccc43)N2C1=O [Product 37] | < 25 µM | > 50 µM |  | 
CN[C@@H](C)C(=O)N[C@H]1CCO[C@H]2CC[C@@H](C(=O)N[C@@H]3CCOc4ccccc43)N2C1=O [Product 32] | < 25 µM | > 50 µM | < 25 µM | MDA-MB-231 LD50 [6]: A (A = ≤ 25 micromolar); PPC-1 (TRAIL) LD50 [4]: A (A = ≤ 25 micromolar); PPC-1 (TNFα) LD50 [5]: A (A = ≤ 25 micromolar)
CN[C@@H](C)C(=O)N[C@H]1CCS[C@H]2CC[C@@H](C(=O)N[C@@H]3CCCc4ccccc43)N2C1=O [Product 34] | < 25 µM | > 50 µM | < 25 µM | PPC-1 (TRAIL) LD50 [4]: A (A = ≤ 25 micromolar); PPC-1 (TNFα) LD50 [5]: A (A = ≤ 25 micromolar)
CN[C@@H](C)C(=O)N[C@H]1CCS[C@H]2CC[C@H](C(=O)N[C@@H]3CCCc4ccccc43)N2C1=O [Product 36] | < 25 µM | > 50 µM | < 25 µM | 
CN[C@@H](C)C(=O)N[C@H]1CCS[C@H]2CCC(C(=O)N[C@@H]3CCCc4ccccc43)N2C1=O (stereo partly shown) [Product 24] | < 25 µM | > 50 µM | < 25 µM | MDA-MB-231 LD50 [6]: A (A = ≤ 25 micromolar); PPC-1 (TRAIL) LD50 [4]: A (A = ≤ 25 micromolar); PPC-1 (TNFα) LD50 [5]: A (A = ≤ 25 micromolar)
CN[C@@H](C)C(=O)N[C@H]1CCO[C@H]2CCC(C(=O)N[C@@H]3CCCc4ccccc43)N2C1=O (stereo partly shown) [Product 12] | < 25 µM | > 50 µM | < 25 µM | MDA-MB-231 LD50 [6]: A (A = ≤ 25 micromolar); PPC-1 (TRAIL) LD50 [4]: A (A = ≤ 25 micromolar); PPC-1 (TNFα) LD50 [5]: A (A = ≤ 25 micromolar)
CN[C@@H](C)C(=O)N[C@H]1CCO[C@H]2c3ccccc3C(C(=O)N[C@@H]3CCCc4ccccc43)N2C1=O (stereo partly shown) [Product 27] | < 25 µM | > 50 µM | < 25 µM | PPC-1 (TRAIL) LD50 [4]: A (A = ≤ 25 micromolar); PPC-1 (TNFα) LD50 [5]: A (A = ≤ 25 micromolar)
CN[C@@H](C)C(=O)N[C@H]1CCN[C@H]2CCC(C(=O)N[C@@H]3CCCc4ccccc43)N2C1=O (stereo partly shown) [Product 29] | > 50 µM |  |  | 
CN[C@@H](C)C(=O)N[C@H]1CCS[C@H]2CC(C)(C)C(C(=O)N[C@@H]3CCCc4ccccc43)N2C1=O (stereo partly shown) [Product 35] | < 25 µM | < 25 µM | < 25 µM | PPC-1 (TRAIL) LD50 [4]: A (A = ≤ 25 micromolar); PPC-1 (TNFα) LD50 [5]: A (A = ≤ 25 micromolar)
